Measured values published in US8946291B2, “Compositions and methods for treating pigmentary conditions and melanoma” (The United States of America, as represented by the …, priority 2008, dated 2015).

Experiments:
SOX9 [1] = assay: SOX9 protein expression in normal human melanocytes (metabolic labeling, immunoblotting, immunocytochemistry); format: cell-based; settings: for SOX9 regulation in human melanocytes: statement in the discussion
Experimental: Cultures in 100 mm dishes were solubilized in […] mammalian protein extraction reagent (Pierce Biotechnology, Rockford, Ill., USA) and Protease Inhibitor cocktail (Roche, Mannheim, Germany). Protein concentrations of extracts were measured using the BCA protein assay kit (Pierce, Rockford, Ill., USA). Cell extracts (20 μg) were separated on 8-16% gradient SDS polyacrylamide gels (Invitrogen). After electrophoresis, proteins were transferred electrophoretically from the gels to Invitrolon PVDF transfer membranes (Invitrogen). The filters were incubated with antibodies to SOX9 (rabbit 1:500; Abeam, Cambridge, UK), SOX10 (goat 1:200; Santa Cruz, Santa Cruz, Calif., USA), DCT (1:2,000; (22)), Tyrosinase (rabbit 1:10,000; (22)), or GAPDH (rabbit 1:10,000, Santa Cruz) for 1 h at 23° C. to overnight at 4° C. (depending on the antibody) and were then incubated with horseradish peroxidase-linked anti-rabbit, anti-mouse or anti-goat whole antibodies (at 1:1,0000, GE Healthcare, Buckinghamshire, UK) at room temperature for 1 h. Antigens were detected using ECL-plus Western Blotting Detection System (GE Healthcare). Blots were quantitated using Scion Image Software (Scion Corp., Frederick, Md., USA). Each experiment was performed at least in triplicate.
Melanocyte cultures in two well Lab-Tek chamber slides (Nalge Nune International Corp., Naperville, Ill., USA) were processed for indirect fluorescence to detect the expression of proteins using primary antibodies to SOX9 (rabbit 1:50, Abcam), MITF-ab3 (mouse 1:100 dilution; NeoMarkers, Fremont, Calif., USA), DCT (rabbit 1:7,500; (22)) and Tyrosinase (rabbit 1:700; (22)). Bound antibodies were visualized with appropriate secondary antibodies, Alexa Fluor® 488 goat anti-rabbit IgG (H+L) (Molecular Probes, Inc., Eugene, Oreg., USA), Alexa Fluor® 594 mouse anti-rabbit IgG (H+L) (Molecular Probes), Alexa Fluor® 488 goat anti-mouse IgG (H+L) (Molecular Probes) or Alexa Fluor® 594 goat anti-mouse IgG (H+L) (Molecular Probes) at 37° C. for 30 min at 1:500 dilution with 5% goat serum. DAPI (Vector, Burlingame, Calif.; USA) was used as a counter-stain. The green fluorescence produced by Alexa 488®, red produced by Alexa 594®, and blue by DAPI was observed and captured using a Leica DMR B/D MLD fluorescence microscope (Leica, Wetzlar, Germany) and a Dage-MTI 3CCD 3-chip color video camera (Dage-MTI, Michigan City, Ind., USA).
Radioactive metabolic labeling and immunoprecipitation was performed as described previously (58). Where indicated, cells were irradiated with 21 mJ/cm^2 UVB and/or chemical agents were added from the “pulse” period to the “chase” period. Cell extracts were incubated with normal rabbit serum (Vector, Burlingame, Calif., USA) and were then incubated with protein G beads (GE Healthcare). The supernatants were incubated with SOX9 (Abcam) or GAPDH (Santa-Cruz) antibodies. The immune-complexes were separated by incubation with beads and were further washed with immunoprecipitate lysis buffer. The pellets were eluted, electrophoresed and visualized by autoradiography.

SOX9 [2] = settings: by promoting phosphorylation and nuclear translocation, literature (13); cited from earlier work
melanoma cells = settings: literature (14-17); cited from earlier work
A375 cells = assay: Proliferation assay (crystal violet) in A375 melanoma cells; format: cell-based, human
Experimental: B16/F10 melanoma cells, SKMel 28 and A375 cells were obtained from the ATCC (Manassas, Va., USA). Mel Juso cells are a generous gift from Dr. Hornyak at the National Cancer Institute. A375, SK Mel 28 and B16 cells were grown at 37° C. under 5% CO2 in DMEM supplemented with 7% Fetal Bovine Serum (FBS) and penicillin (100 U/ml) and streptomycin (50 ug/ml). Mel Juso cells were grown at 37° C. under 5% CO2 in RPMI medium supplemented with 10% FBS and penicillin (100 U/ml) and streptomycin (50 ug/ml). Retinoic acid (10^−7M) and Prostaglandin D2 (0.5 ug/ml) were purchased from Sigma-Aldrich (St-Louis, Mo., USA).
The cells were transfected with a pBabe vector to give them a resistance to puromycin. At the same time, they were transfected with SOX9 cDNA or empty vector as control. Depending on the experiment, cells were also transfected the day after with SiRNA p21 or SiRNA Mock. After 10 to 15 d, the clones were fixed and stained with crystal violet. Proliferation was measured according to the optical density of the color.

PRAME = PRAME expression in melanoma cells (immunoprecipitation / immunoblotting); format: cell-based, human; settings: A375 cells treated with PGD2 for 72 h
Experimental: (§1) SOX9 has been extensively studied in chondrocytes due to its key role for collagen II synthesis. […] First, S35 labeling was performed on A375 cells treated or not treated with PGD2 for 72 h. Proteins were then extracted and immunoprecipitated with SOX9 and PRAME antibodies (GAPDH was used as a control). SOX9 was increased after treatment with PGD2 whereas PRAME was decreased (FIG. 3B). […] A further proliferation assay with or without RA treatment, using PGD2 instead of the transfection with SOX9, was performed.
(§2) Cells were solubilized in M-PER® mammalian protein extraction reagent (Pierce Biotechnology, Rockford, Ill., USA) containing Protease Inhibitor cocktail (Roche, Mannheim, Germany). Protein concentrations of extracts were measured using the BCA protein assay kit (Pierce, Rockford, Ill., USA). Cell extracts (30 μg) were separated on SDS polyacrylamide gels (Invitrogen). After electrophoresis, proteins were transferred electrophoretically from the gels to Invitrolon PVDF transfer membranes (Invitrogen). […] Antigens were detected using ECL-plus Western Blotting Detection System (GE Healthcare). […]

SOX9 [3] = assay: SOX9 expression in A375 cells (S35 labeling and immunoprecipitation / immunoblotting); format: cell-based, human; settings: A375 cells treated with PGD2 for 72 h
Experimental: as §1, §2

DCT promoter = assay: Luciferase assay of DCT promoter in HeLa cells; format: cell-based, human; settings: forskolin (data not shown)
Experimental: (§3) B16 melanoma cells or HeLa cells were seeded in 24-well dishes and were transfected with 0.3 μg of the luciferase reporter plasmid and 0.05 μg of pCMVβGal (Promega, Madison, Wis., USA) to control the variability of transfection efficiency. In some experiments, SOX9 was over-expressed using 0.1 μg of the pcDNA3 encoding SOX9, or was silenced with SOX9 siRNA (100 nM). Empty pcDNA3 or siRNA scrambles were used as controls depending on the experiments. All transfections were made with Lipofectamine (Invitrogen) according to the instructions of the manufacturer. Thirty-six h later, cells were washed with a saline phosphate buffer and lysed with reporter lysis buffer (Promega). Soluble extracts were harvested and assayed for luciferase and β-galactosidase activities. All transfections were repeated at least 3 times using different plasmid preparations and gave similar results. The pMITF wild-type and mutants, pDCT, pTYR, and pCRE constructs used were described previously (26, 43, 59).

TYR promoter = assay: Luciferase assay of TYR promoter in HeLa cells; format: cell-based, human; settings: forskolin (data not shown)
Experimental: as §3

SOX9 [4] = assay: SOX9 mRNA expression in normal human melanocytes by RT-PCR; format: cell-based; settings: n-MP NHM, 4 h after ASP treatment
Text: Total RNA was reverse-transcribed using SuperScript III (Invitrogen). PCR reactions consisted of 25 cycles for β-actin and 35 cycles for SOX9 using Taq DNA polymerase (Invitrogen). PCR products for β-actin and SOX9 were 838 bp, and 288 bp, respectively, and were electrophoresed in parallel with DNA molecular mass markers (Invitrogen). Oligonucleotide primers used for PCR were based on mRNA sequences as follows: human SOX9 sense primer 5′-[…]-3′ (SEQ ID NO:5); human SOX9 antisense primer 5′-[…]-3′ (SEQ ID NO:6), β-actin sense primer 5′-[…]-3′ (SEQ ID NO:7); β-actin antisense primer 5′-[…]-3′ (SEQ ID NO:8). Each experiment was repeated at least in triplicate independently.

[5] = tested on: mouse melanocytes, melanoma cells, NHM; settings: literature (38-40); cited from earlier work
[6] = NHM, 21 mJ/cm^2 UVB, pretreatment with H89

O=S(=O)(NCCNC/C=C/c1ccc(Br)cc1)c1cccc2cnccc12 [H89]
UVB-induced expression of SOX9 (SOX9 [1]; [6]): prevented the increased expression | UVB-induced expression of SOX9 phosphorylated at serine 181 (SOX9 [1]; [6]): prevented the increased expression

CCCCC[C@H](O)/C=C/[C@H]1C(=O)C[C@H](O)[C@@H]1C/C=C\CCCC(=O)O [PGD2, prostaglandin D2]
SOX9 activity in chondrocytes (SOX9 [2]): increase SOX9 activity | proliferation of melanoma cells and other cancer cells (melanoma cells): decrease the proliferation | proliferation of A375 cells (A375 cells; PGD2 0.5 μg/μl alone): inhibited | PRAME expression (PRAME): decreased | SOX9 expression (SOX9 [3]): increased

CC1=C(/C=C/C(C)=C/C=C/C(C)=C/C(=O)O)C(C)(C)CCC1 [RA, retinoic acid]
proliferation of A375 cells (A375 cells; RA 10^−7 M alone): no effect

C=C[C@@]1(C)CC(=O)[C@]2(O)[C@@]3(C)[C@@H](O)CCC(C)(C)[C@@H]3[C@H](O)[C@H](OC(C)=O)[C@@]2(C)O1 [forskolin]
DCT promoter activity (DCT promoter): no effect | TYR promoter activity (TYR promoter): no effect

Δ2-PGJ2
proliferation of melanoma cells and other cancer cells (melanoma cells): decrease the proliferation

αMSH
SOX9 regulation in human melanocytes (SOX9 [1]): up-regulated

B1: ASP: recombinant mouse protein, antagonist of the melanocortin I receptor (MC1R) (protein, UniProt Q03288 23-131, looked up)
Agouti-signaling protein: HLALEETLGDDRSLRSNSSMNSLDFSSVSIVALNKKSKKISRKEAEKRKRSSKKKASMKKVARPPPPSPCVATRDSCKPPAPACCDPCASCQCRFFGSACTCRVLNPNC
expression level of SOX9 (RT-PCR) (SOX9 [4]): decreased | SOX9 expression (immunoblotting) (SOX9 [1]; n-MP NHM treated 48 h with ASP): significantly decreased | SOX9 regulation in human melanocytes (SOX9 [1]): down-regulated | melanin formation [5]: inhibits melanin formation
